Experiments:
Type in all cases: cell-based, human
[1] = test system: enzalutamide resistant PCa cell lines; experiment: Enzalutamide resistant PCa cells: immunoblot and colony formation
Experimental: Prostate parental cell lines used in this study were obtained from ATCC, LNCaP-AR cells were a gift from Dr. Charles Sawyers (Memorial Sloan-Kettering Cancer Center, New York, NY), and LNCaP AR-KO cells were a gift from Dr. Dean Tang (Roswell Park Cancer Institute, Buffalo, NY). LNCaP, LNCaP-AR, 22RV1, LAPC4, DU145, PC3, and LNCaP AR-KO prostate cancer cell lines were grown in RPMI 1640 (Gibco, 11875093), and VCaP prostate cancer cell line was grown in DMEM with Glutamax (Gibco, 21013024). The medium was supplemented with 10% Fetal Bovine Serum (FBS) (HYC, SH30910.03) and 1% Penicillin Streptomycin Solution (Invitrogen, 15140122), hereto referred to as “complete media.” The immortalized benign prostate cell line RWPE-1 was grown in keratinocyte media with supplements (Thermo Fisher Scientific, 17005042). LNCaP-AR and VCaP enzalutamide-resistant cell lines were derived from enzalutamide-resistant PCa tumor xenograft as described previously. LNCaP and LAPC4 enzalutamide-resistant cell lines were generated by culturing the cells in presence of 20 μM enzalutamide for 3-4 months in vitro. Polyclonal pools of enzalutamide-resistant cells were cultured and maintained in media containing enzalutamide throughout. All experiments for enzalutamide resistant pools were done in presence of enzalutamide throughout the remainder of all experiments with these cells. The cell lines were tested negative for mycoplasma contamination and maintained in a humidified incubator at 37° C. and 5% CO2.
For the long-term colony formation assay, 10,000-50,000 cells/well in six-well plates (n=3) were seeded and treated with the required drugs/compounds or vehicle for 14 days. Media was refreshed every 4-5 days. Colonies were fixed and stained using 0.5% (w/v) crystal violet (Sigma, C0775) in 20% (v/v) methanol for 30 min, washed with distilled deionized water, and air-dried. To quantify staining, we washed the stained wells with 500 μL 10% acetic acid and using colorimetric assays determined the absorbance at 590 nm using a spectrophotometer (Synergy HT, BioTek Instruments, Vermont-USA).
Cell lysates were prepared with RIPA buffer (Boston Bioproducts, BP-115DG)-10 mM Tris-HCl pH 7.5, 1 mM EDTA, 400 mM NaCl, 0.5% NP-40 and 1 mM DTT, supplemented with protease inhibitor cocktail (Pierce, A32965) and phosphatase inhibitor (Thermo, 1861280). For immunoblotting 200 μg total protein extract was boiled in sample buffer and 15-25 μg aliquots were separated by SDS-PAGE and transferred onto Polyvinylidene Difluoride membrane (GE Healthcare, IPVH00010). The membrane was incubated for one hour in blocking buffer [Tris-buffered saline, 0.1% Tween (TBS-T), 5% nonfat dry milk followed by overnight incubation on a rocker at 4° C. with the primary antibody. […]

[2] = test system: chromatin-bound p-MED1/MED1; experiment: Chromatin-bound protein extraction and immunoblot; conditions: DHT-stimulated LNCaP, 6 h; THZ1 100 nM, enzalutamide 5 μM
Experimental: Chromatin bound protein extraction was performed following the protocol described in Pawar et al. Briefly, 10 million cells were collected and washed with DPBS, and were resuspended in 250 μl Buffer A (10 mM HEPES pH 7.9, 10 mM KCl, 1.5 mM MgCl2, 0.34 M sucrose, 10% glycerol, 1 mM DTT) supplemented with 0.1% TritonX-100 and incubated on ice for 10 min. The nuclei pellet was collected by centrifugation at 1300×g for 5 min at 4° C., washed in Buffer A and centrifuged again with the same settings. The nuclear pellet was then resuspended in Buffer B (3 mM EDTA, 0.2 mM EGTA, 1 mM DTT) and incubated on ice for 30 min. The chromatin pellet was collected by centrifugation at 1700×g for 5 min at 4° C., washed in Buffer B and centrifuged again with the same settings. The proteins were incubated on ice in Buffer B with 150 mM NaCl for 20 min and centrifuged at 1700×g for 5 min to remove proteins soluble in 150 mM salt concentrations. The pellet was then incubated in Buffer B with 300 mM NaCl on ice for 20 min and centrifuged again at 1700×g to obtain the final chromatin pellet. The chromatin pellet was dissolved in sample buffer, sonicated for 15 seconds, and boiled at 95° C. for 10 min. Samples were analyzed using Immunoblot analysis as described previously. All buffers were supplemented with Pierce protease inhibitor and Halt protease & phosphatase inhibitors.

AR target genes = experiment: qRT-PCR of DHT-induced AR target gene expression; conditions: LNCaP and VCaP, 100 nM THZ1
Experimental: For AR signaling stimulation experiments, cells were plated in complete media at required confluency. After 24 h cells were washed with DPBS and cultured in RPMI/DMEM without Phenol Red (Invitrogen, 11835030) and 10% charcoal-dextran stripped FBS (Gemini BioProducts, 100-119) for 72 h. Cells were then stimulated with 10 nM DHT for the specific time points.
Total RNA was isolated from cells using miRNeasy Mini Kit (Qiagen, 74106) and cDNA was synthesized from 1 μg total RNA using SuperScriptIV (Life Technologies, 18090200). qRT-PCR was performed using Fast SYBR Master Mix (Life Technologies, 4385617) or Taqman Fast Advance MMIX (Life Technologies, 4444964), and analyzed on QuantStudio3 (Applied Biosystems, USA). The target mRNA expression was quantified using ΔΔCt method, as normalized to GAPDH transcript levels. Primers were designed using Primer3 Input (version 0.4.0) (bioinfo.ut.ee/primer3-0.4.0/primer3) and synthesized by Integrated DNA Technologies.

CN(C)C/C=C/C(=O)Nc1ccc(C(=O)Nc2cccc(Nc3ncc(Cl)c(-c4c[nH]c5ccccc45)n3)c2)cc1 [THZ1]
PSA ([1]; 200 nM THZ1, 24 h): reduced PSA
apoptosis (cleaved PARP, cleaved caspase-3) ([1]; 200 nM THZ1, 24 h): increased apoptosis
p-MED1 ([1]; 200 nM THZ1, 24 h): loss of p-MED1
growth (colony formation) ([1]; enzalutamide plus 50 nM THZ1): growth inhibition
chromatin-bound levels of p-MED1/MED1 [2]: complete loss in the chromatin-bound levels of p-MED1/MED1
DHT-induced AR target gene expression (AR target genes): phenocopied the reduction in DHT-induced gene expression
